Results as given in ChEMBL document CHEMBL4507285, “Data for DCP probe MRL-SYKi” (2021).

Tests used:
[1] = biological target: Cyclin-dependent kinase 2 homolog (Plasmodium falciparum (isolate 3D7)) (UniProt P61075); settings: Compound concentration 100.0 nM
[2] = biological target: TGF-beta receptor type-1 (Homo sapiens) (UniProt P36897); settings: Compound concentration 100.0 nM
[3] = biological target: Serine/threonine-protein kinase MARK2 (Homo sapiens) (UniProt Q7KZI7); settings: Compound concentration 100.0 nM
[4] = biological target: Bone morphogenetic protein receptor type-2 (Homo sapiens) (UniProt Q13873); settings: Compound concentration 100.0 nM
Sequence of Bone morphogenetic protein receptor type-2 (Homo sapiens) (Q13873 whole entry): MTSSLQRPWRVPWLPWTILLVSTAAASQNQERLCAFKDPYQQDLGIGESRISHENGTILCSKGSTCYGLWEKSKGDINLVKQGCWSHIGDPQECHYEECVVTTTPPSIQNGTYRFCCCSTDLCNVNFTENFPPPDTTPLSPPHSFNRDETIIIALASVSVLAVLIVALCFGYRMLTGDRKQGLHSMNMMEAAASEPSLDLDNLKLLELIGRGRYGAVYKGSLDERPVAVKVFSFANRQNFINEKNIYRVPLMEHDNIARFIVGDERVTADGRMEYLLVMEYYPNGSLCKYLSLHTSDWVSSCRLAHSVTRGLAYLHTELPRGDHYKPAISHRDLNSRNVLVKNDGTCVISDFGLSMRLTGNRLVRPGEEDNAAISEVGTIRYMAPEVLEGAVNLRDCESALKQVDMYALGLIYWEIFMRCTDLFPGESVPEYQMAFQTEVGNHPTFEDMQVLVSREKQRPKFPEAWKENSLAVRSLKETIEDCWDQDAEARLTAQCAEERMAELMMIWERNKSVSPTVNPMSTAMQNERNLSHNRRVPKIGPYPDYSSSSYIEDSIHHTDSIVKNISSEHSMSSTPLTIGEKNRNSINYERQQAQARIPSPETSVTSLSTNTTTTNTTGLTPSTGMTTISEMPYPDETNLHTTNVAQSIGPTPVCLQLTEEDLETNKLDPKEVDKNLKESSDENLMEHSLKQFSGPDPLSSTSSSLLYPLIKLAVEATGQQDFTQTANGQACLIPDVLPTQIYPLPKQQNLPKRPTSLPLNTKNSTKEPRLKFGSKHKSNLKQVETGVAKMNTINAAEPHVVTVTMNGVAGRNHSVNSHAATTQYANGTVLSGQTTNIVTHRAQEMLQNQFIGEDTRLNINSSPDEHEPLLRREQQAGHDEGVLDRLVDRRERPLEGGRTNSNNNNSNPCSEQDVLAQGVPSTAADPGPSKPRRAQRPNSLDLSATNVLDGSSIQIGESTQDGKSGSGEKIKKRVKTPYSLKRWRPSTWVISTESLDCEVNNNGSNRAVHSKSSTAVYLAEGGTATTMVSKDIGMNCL

[5] = biological target: Beta-1 adrenergic receptor (Homo sapiens) (UniProt P08588); settings: Compound concentration 10.0 uM
[6] = biological target: Homeodomain-interacting protein kinase 4 (Homo sapiens) (UniProt Q8NE63); settings: Compound concentration 100.0 nM
[7] = biological target: Atypical kinase COQ8A, mitochondrial (Homo sapiens) (UniProt Q8NI60); settings: Compound concentration 100.0 nM
[8] = biological target: Cyclin-dependent kinase 2 (Homo sapiens) (UniProt P24941); settings: Compound concentration 100.0 nM
[9] = biological target: Atypical kinase COQ8B, mitochondrial (Homo sapiens) (UniProt Q96D53); settings: Compound concentration 100.0 nM
[10] = biological target: Serine/threonine-protein kinase D1 (Homo sapiens) (UniProt Q15139); settings: Compound concentration 100.0 nM
[11] = biological target: Mu-type opioid receptor (Homo sapiens) (UniProt P35372); settings: Compound concentration 10.0 uM
Sequence of Mu-type opioid receptor (Homo sapiens) (P35372 whole entry): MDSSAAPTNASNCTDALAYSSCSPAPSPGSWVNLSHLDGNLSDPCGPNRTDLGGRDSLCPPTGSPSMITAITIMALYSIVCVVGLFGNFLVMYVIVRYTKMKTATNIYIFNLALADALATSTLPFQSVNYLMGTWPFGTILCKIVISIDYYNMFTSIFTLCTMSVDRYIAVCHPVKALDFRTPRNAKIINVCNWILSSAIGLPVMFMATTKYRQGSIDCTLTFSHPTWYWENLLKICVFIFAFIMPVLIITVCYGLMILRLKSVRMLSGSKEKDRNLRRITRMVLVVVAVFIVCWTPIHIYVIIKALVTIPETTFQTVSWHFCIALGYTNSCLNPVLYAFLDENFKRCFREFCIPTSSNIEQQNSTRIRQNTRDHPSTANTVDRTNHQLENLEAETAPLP

[12] = tested on: Epidermal growth factor receptor (Homo sapiens), P00533 [UNDEFINED MUTATION]; settings: Compound concentration 100.0 nM
[13] = tested on: Leucine-rich repeat serine/threonine-protein kinase 2 (Homo sapiens), Q5S007 [G2019S]; settings: Compound concentration 100.0 nM
[14] = biological target: MAP/microtubule affinity-regulating kinase 4 (Homo sapiens) (UniProt Q96L34); settings: Compound concentration 100.0 nM
[15] = biological target: Rho-associated protein kinase 1 (Homo sapiens) (UniProt Q13464); settings: Compound concentration 100.0 nM
[16] = biological target: Beta-3 adrenergic receptor (Homo sapiens) (UniProt P13945); settings: Compound concentration 10.0 uM
Sequence of Beta-3 adrenergic receptor (Homo sapiens) (P13945 whole entry, looked up): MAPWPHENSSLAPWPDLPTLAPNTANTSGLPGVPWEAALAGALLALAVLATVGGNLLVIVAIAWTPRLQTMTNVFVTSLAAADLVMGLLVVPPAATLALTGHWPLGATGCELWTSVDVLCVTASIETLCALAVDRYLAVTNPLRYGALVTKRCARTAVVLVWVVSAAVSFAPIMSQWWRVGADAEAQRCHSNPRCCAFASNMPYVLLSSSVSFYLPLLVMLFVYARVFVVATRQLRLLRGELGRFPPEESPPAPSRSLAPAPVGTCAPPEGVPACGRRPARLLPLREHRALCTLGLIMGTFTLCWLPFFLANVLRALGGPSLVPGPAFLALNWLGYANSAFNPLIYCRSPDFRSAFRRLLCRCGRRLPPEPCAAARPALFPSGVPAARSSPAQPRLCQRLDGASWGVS

[17] = biological target: Dual specificity mitogen-activated protein kinase kinase 5 (Homo sapiens) (UniProt Q13163); settings: Compound concentration 100.0 nM
[18] = biological target: Membrane-associated tyrosine- and threonine-specific cdc2-inhibitory kinase (Homo sapiens) (UniProt Q99640); settings: Compound concentration 100.0 nM
[19] = biological target: Fibroblast growth factor receptor 2 (Homo sapiens) (UniProt P21802); settings: Compound concentration 100.0 nM
[20] = biological target: Serine/threonine-protein kinase 38 (Homo sapiens) (UniProt Q15208); settings: Compound concentration 100.0 nM
Sequence of Serine/threonine-protein kinase 38 (Homo sapiens) (Q15208 2-465 limits assumed): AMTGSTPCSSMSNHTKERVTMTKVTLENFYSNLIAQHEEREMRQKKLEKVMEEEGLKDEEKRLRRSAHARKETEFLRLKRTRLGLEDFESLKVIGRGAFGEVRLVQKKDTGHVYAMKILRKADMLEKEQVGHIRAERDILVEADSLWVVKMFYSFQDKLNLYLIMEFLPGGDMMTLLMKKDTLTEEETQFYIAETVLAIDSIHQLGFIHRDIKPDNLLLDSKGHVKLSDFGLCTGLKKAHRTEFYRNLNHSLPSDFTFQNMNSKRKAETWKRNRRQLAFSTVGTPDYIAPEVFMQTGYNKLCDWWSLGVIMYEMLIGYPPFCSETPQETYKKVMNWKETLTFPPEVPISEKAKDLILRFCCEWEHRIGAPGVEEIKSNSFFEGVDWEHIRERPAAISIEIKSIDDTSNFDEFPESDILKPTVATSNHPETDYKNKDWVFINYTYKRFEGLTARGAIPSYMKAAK

[21] = biological target: Ribosomal protein S6 kinase alpha-6 (Homo sapiens) (UniProt Q9UK32); settings: Compound concentration 100.0 nM
[22] = tested on: Phosphatidylinositol 4,5-bisphosphate 3-kinase catalytic subunit alpha isoform (Homo sapiens), P42336 [Q546K]; settings: Compound concentration 100.0 nM
[23] = biological target: Tyrosine-protein kinase Lyn (Homo sapiens) (UniProt P07948); settings: Compound concentration 100.0 nM
[24] = biological target: Sodium-dependent dopamine transporter (Homo sapiens) (UniProt Q01959); settings: Compound concentration 10.0 uM
[25] = biological target: Vascular endothelial growth factor receptor 3 (Homo sapiens) (UniProt P35916); settings: Compound concentration 100.0 nM
[26] = biological target: Serine/threonine-protein kinase RIO3 (Homo sapiens) (UniProt O14730); settings: Compound concentration 100.0 nM
[27] = tested on: Proto-oncogene tyrosine-protein kinase receptor Ret (Homo sapiens), P07949 [M918T]; settings: Compound concentration 100.0 nM
Sequence of Proto-oncogene tyrosine-protein kinase receptor Ret (Homo sapiens), P07949 [M918T] (P07949 whole entry M918T): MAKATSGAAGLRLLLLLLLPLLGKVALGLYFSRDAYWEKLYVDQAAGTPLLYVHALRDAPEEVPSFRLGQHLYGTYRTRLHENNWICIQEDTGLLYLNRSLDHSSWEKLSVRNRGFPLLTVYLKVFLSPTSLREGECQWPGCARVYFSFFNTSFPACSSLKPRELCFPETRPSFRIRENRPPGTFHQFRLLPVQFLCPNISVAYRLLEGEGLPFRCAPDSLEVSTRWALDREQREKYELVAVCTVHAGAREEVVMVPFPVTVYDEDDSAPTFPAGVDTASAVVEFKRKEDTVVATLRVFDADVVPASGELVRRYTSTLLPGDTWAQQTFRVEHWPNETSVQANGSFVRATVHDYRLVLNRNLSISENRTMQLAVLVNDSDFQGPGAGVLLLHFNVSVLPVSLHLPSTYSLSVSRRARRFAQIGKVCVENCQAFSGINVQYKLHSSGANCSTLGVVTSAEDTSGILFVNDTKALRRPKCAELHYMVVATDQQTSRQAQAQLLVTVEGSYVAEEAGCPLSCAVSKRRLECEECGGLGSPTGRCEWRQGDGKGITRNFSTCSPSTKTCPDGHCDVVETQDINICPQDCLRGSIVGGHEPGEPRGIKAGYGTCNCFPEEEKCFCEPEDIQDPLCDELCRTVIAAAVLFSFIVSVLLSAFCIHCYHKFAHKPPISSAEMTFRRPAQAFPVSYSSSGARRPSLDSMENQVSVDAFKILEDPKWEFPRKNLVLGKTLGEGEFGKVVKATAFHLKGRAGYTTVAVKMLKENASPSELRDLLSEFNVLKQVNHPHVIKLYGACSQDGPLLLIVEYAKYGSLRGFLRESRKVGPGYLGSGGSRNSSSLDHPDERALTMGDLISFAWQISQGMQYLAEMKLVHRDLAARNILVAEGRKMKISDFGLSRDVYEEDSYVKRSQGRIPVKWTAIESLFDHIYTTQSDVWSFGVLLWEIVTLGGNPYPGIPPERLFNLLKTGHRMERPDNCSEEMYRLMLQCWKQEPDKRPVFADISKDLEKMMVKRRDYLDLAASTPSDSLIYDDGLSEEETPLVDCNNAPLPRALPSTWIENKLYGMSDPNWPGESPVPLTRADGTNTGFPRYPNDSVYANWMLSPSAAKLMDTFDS

[28] = biological target: BDNF/NT-3 growth factors receptor (Homo sapiens) (UniProt Q16620); settings: Compound concentration 100.0 nM
[29] = tested on: Tyrosine-protein kinase ABL1 (Homo sapiens), P00519 [T315I]; settings: Compound concentration 100.0 nM
[30] = biological target: Phosphatidylinositol 4-kinase beta (Homo sapiens) (UniProt Q9UBF8); settings: Compound concentration 100.0 nM
[31] = biological target: Mitogen-activated protein kinase kinase kinase 4 (Homo sapiens) (UniProt Q9Y6R4); settings: Compound concentration 100.0 nM
[32] = biological target: Serine/threonine-protein kinase MARK1 (Homo sapiens) (UniProt Q9P0L2); settings: Compound concentration 100.0 nM
[33] = biological target: Cyclin-dependent kinase 4 (Homo sapiens) (UniProt P11802); settings: Compound concentration 100.0 nM
[34] = biological target: Protein kinase C theta type (Homo sapiens) (UniProt Q04759); settings: Compound concentration 100.0 nM
[35] = biological target: MAP/microtubule affinity-regulating kinase 3 (Homo sapiens) (UniProt P27448); settings: Compound concentration 100.0 nM
[36] = biological target: Tyrosine-protein kinase JAK1 (Homo sapiens) (UniProt P23458); settings: Compound concentration 100.0 nM
[37] = biological target: Epithelial discoidin domain-containing receptor 1 (Homo sapiens) (UniProt Q08345); settings: Compound concentration 100.0 nM
[38] = biological target: SRSF protein kinase 2 (Homo sapiens) (UniProt P78362); settings: Compound concentration 100.0 nM
[39] = tested on: Mast/stem cell growth factor receptor Kit (Homo sapiens), P10721 [V559D,T670I]; settings: Compound concentration 100.0 nM
Sequence of Mast/stem cell growth factor receptor Kit (Homo sapiens), P10721 [V559D,T670I] (P10721 whole entry V559D/T670I): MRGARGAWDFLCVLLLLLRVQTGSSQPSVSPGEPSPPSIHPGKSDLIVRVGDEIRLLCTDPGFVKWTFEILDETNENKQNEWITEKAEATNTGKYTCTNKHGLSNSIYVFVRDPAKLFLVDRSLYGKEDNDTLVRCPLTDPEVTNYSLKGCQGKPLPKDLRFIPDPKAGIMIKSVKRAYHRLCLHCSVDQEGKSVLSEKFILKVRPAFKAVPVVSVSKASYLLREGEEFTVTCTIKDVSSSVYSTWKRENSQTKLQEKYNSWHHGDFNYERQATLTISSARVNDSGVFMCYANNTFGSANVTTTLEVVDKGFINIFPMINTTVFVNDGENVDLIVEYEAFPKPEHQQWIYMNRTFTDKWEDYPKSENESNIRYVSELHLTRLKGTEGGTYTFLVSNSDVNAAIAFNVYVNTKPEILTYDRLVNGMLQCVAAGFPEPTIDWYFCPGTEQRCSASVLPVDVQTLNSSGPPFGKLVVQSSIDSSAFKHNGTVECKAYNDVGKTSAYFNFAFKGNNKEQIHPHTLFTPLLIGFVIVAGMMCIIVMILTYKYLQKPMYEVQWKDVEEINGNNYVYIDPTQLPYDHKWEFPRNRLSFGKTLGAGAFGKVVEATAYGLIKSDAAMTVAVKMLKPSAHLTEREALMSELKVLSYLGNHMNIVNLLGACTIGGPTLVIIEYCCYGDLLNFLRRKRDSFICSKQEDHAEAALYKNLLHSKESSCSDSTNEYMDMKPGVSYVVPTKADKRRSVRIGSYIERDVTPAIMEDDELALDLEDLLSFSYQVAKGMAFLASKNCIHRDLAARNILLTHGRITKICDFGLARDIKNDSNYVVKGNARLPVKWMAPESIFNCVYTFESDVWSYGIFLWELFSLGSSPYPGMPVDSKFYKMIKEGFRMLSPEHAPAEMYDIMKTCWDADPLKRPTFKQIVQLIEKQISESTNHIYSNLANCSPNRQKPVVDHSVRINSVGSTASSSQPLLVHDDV

[40] = tested on: Mast/stem cell growth factor receptor Kit (Homo sapiens), P10721 [V559D]; settings: Compound concentration 100.0 nM
Sequence of Mast/stem cell growth factor receptor Kit (Homo sapiens), P10721 [V559D] (P10721 whole entry V559D): as the sequence (P10721 whole entry V559D/T670I) above, with I670T counted along it

[41] = biological target: Ephrin type-A receptor 1 (Homo sapiens) (UniProt P21709); settings: Compound concentration 100.0 nM
[42] = biological target: Mitogen-activated protein kinase 3 (Homo sapiens) (UniProt P27361); settings: Compound concentration 100.0 nM
[43] = biological target: Homeodomain-interacting protein kinase 1 (Homo sapiens) (UniProt Q86Z02); settings: Compound concentration 100.0 nM
[44] = biological target: Protein kinase C epsilon type (Homo sapiens) (UniProt Q02156); settings: Compound concentration 100.0 nM
[45] = biological target: Tyrosine-protein kinase ABL1 (Homo sapiens) (UniProt P00519); settings: Compound concentration 100.0 nM

Sequence of TGF-beta receptor type-1 (Homo sapiens) (P36897 whole entry): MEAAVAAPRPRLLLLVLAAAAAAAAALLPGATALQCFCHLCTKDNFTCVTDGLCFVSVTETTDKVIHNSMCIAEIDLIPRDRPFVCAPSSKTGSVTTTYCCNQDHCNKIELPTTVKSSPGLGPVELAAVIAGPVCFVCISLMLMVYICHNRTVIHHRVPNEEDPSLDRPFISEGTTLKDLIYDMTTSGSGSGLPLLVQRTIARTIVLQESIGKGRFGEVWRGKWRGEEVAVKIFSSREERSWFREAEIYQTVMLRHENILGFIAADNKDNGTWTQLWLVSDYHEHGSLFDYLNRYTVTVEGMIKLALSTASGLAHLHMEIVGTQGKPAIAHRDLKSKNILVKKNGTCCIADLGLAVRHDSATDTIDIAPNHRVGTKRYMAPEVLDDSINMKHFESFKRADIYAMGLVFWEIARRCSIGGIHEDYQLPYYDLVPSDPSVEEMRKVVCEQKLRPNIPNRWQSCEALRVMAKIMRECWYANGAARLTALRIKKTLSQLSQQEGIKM

Structure (SMILES): Cc1ccc(-c2cnc([C@@]3(O)CC[C@H](C(=O)O)C(C)(C)C3)s2)cc1Nc1cccc(C(F)(F)F)n1 [MRL-SYKi-NC]
- residual activity [1]: 33%
- residual activity [2]: 83%
- residual activity [3]: 100%
- residual activity [4]: 54.9%
- inhibition [5]: 10.3%
- residual activity [6]: 97.7%
- residual activity [7]: 100%
- residual activity [8]: 98.8%
- residual activity [9]: 98.7%
- residual activity [10]: 90.1%
- inhibition [11]: 8.33%
- residual activity [12]: 100%
- residual activity [13]: 64.9%
- residual activity [14]: 71.5%
- residual activity [15]: 100%
- inhibition [16]: -6.54%
- residual activity [17]: 85.2%
- residual activity [18]: 93.1%
- residual activity [19]: 100%
- residual activity [20]: 87.9%
- residual activity [21]: 90.8%
- residual activity [22]: 100%
- residual activity [23]: 100%
- inhibition [24]: 71%
- residual activity [25]: 100%
- residual activity [26]: 100%
- residual activity [27]: 100%
- residual activity [28]: 67.2%
- residual activity [29]: 88%
- residual activity [30]: 81.2%
- residual activity [31]: 100%
- residual activity [32]: 62.8%
- residual activity [33]: 100%
- residual activity [34]: 100%
- residual activity [35]: 100%
- residual activity [36]: 100%
- residual activity [37]: 100%
- residual activity [38]: 91.9%
- residual activity [39]: 99.7%
- residual activity [40]: 90%
- residual activity [41]: 100%
- residual activity [42]: 100%
- residual activity [43]: 84.8%
- residual activity [44]: 100%
- residual activity [45]: 100%

Structure (SMILES): Cc1cc(Nc2nccc(C)n2)cc(-c2cnc([C@@]3(O)CC[C@H](C(=O)O)C(C)(C)C3)s2)c1 [MRL-SYKi]
- residual activity [1]: 100%
- residual activity [2]: 68.4%
- residual activity [3]: 100%
- residual activity [4]: 100%
- inhibition [5]: -9.08%
- residual activity [6]: 75.6%
- residual activity [7]: 100%
- residual activity [8]: 94.7%
- residual activity [9]: 99.4%
- residual activity [10]: 100%
- inhibition [11]: 17.3%
- residual activity [12]: 65%
- residual activity [13]: 92.3%
- residual activity [14]: 100%
- residual activity [15]: 70.7%
- inhibition [16]: 3.43%
- residual activity [17]: 25.2%
- residual activity [18]: 100%
- residual activity [19]: 67.3%
- residual activity [20]: 80.6%
- residual activity [21]: 100%
- residual activity [22]: 81.6%
- residual activity [23]: 100%
- inhibition [24]: 39.3%
- residual activity [25]: 91.3%
- residual activity [26]: 77.2%
- residual activity [27]: 95.5%
- residual activity [28]: 60.3%
- residual activity [29]: 100%
- residual activity [30]: 88.6%
- residual activity [31]: 67.4%
- residual activity [32]: 95.3%
- residual activity [33]: 85.4%
- residual activity [34]: 39.9%
- residual activity [35]: 100%
- residual activity [36]: 100%
- residual activity [37]: 84.5%
- residual activity [38]: 100%
- residual activity [39]: 83.9%
- residual activity [40]: 100%
- residual activity [41]: 100%
- residual activity [42]: 98.9%
- residual activity [43]: 52.3%
- residual activity [44]: 100%
- residual activity [45]: 63.3%
